“Also recorded” adds a separate entry of the source. Read-outs that look alike come from different tables or passages of the source.
Assays:
[1] = tested on: Interleukin-8 (IL-8) release, primary human lung epithelial cells; assay: IL-8 release from primary human lung epithelial cells stimulated with cigarette smoke extract; format: cell-based; details: primary human lung epithelial cells exposed to CSE for 7 days, vs untreated CSE-stimulated cells
Source text: As an example of the cell protective mechanisms induced by PB201 treatment, release of the proinflammatory cytokine Interleukin-8 (IL-8) was attenuated in primary human lung epithelial cells treated with PB201 compared to untreated cells when both were stimulated with cigarette smoke extract (FIG. 9).

[2] = tested on: Nrf2 (ARE-driven luciferase gene expression); assay: ARE-driven luciferase promoter-reporter assay in stably transfected human cancer cell lines; format: cell-based
Description: As an example of the properties of PB201, cell lines were cultured which had been stably transfected with constructs of the luciferase gene. This luciferase gene was driven in its promoter region by copies of the ARE Nrf2-binding sequence, known as promoter-reporter constructs (Simmons, Fan, Yeoman, Wakefield and Ramabhadran, NRF2 Oxidative Stress Induced by Heavy Metals is Cell Type Dependent, Curr Chem Genomics 5, 1-12 (2011); Shukla, Huang, Simmons, Tice, Witt, Vanleer, Ramabhadran, Austin and Xia, Profiling environmental chemicals for activity in the antioxidant response element signaling pathway using a high throughput screening approach, Environ Health Perspect 120, 1150-1156 (2012)).
Briefly, the stably transfected cells of types HepG2 (human liver), AREc32 (human breast), MCF7 (human breast), A549 (human lung), 293T (human kidney), and A172 (human brain) were seeded at low density in 24-well plates and incubated at 37° C. with 10% CO2. After 24 h various concentrations of combinations of agents were added to the cells. After an additional 18 h of incubation, the cells were lysed in their wells with 100 μl of a lysing buffer that contains 3.5 mM sodium pyrophosphate to stabilize light output by luciferase. A 20 μl aliquot of cell lysate was added to a small test tube, placed in a BD Monolight 3010 luminometer for background luminescence, and then 50 μl of 1 mM luciferin was injected into the tube. Relative Light Units integrated for 10 sec were measured for each sample.

[3] = tested on: Nrf2 signaling pathway (HepG2 cells); assay: Short exposure time course of Nrf2 activation in HepG2 Nrf2-driven promoter luciferase reporter cells; format: cell-based, human; details: 5 minutes exposure, washed off, read 24 hours later; compared with 1 or 2 hours exposure
Description: As an example of the short time course of PB201 exposure needed to activate the Nrf2 signaling pathway, HepG2 cells stably transfected with a Nrf2-driven promoter, luciferase reporter construct were treated with PB201 for 5 minutes, 1 hour, or 2 hours, then the PB201 was removed and washed off the cells, then 24 hours later the luciferase levels were measured by chemiluminescence to assay for Nrf2 activation.

HepG2 cells = assay: Affymetrix PrimeView gene expression array of PB201-treated HepG2 cells; format: cell-based; details: Homo sapiens, 1.5 micrograms/mL, 18 hours
Description: As an example of the cell protective mechanisms induced by PB201 treatment, gene upregulation in cells treated with PB201 was examined. Briefly, cultured HepG2 liver cells were treated with PB201 at 1.5 micrograms/mL concentration for 18 hours, then total RNA was extracted from the HepG2 cells by using the RNeasy Total RNA Isolation Kit (QIAGEN Inc. Valencia, California, USA). The concentration of each sample was determined based on the absorbance at 260 nm (A260). The purity of each sample was determined based on the ratio of A260 to A280. A range of 1.9-2.1 was considered adequately pure. The integrity of Total RNA samples was verified by Agilent 2200 Tape Station. Total RNA (250 ng) was converted to double-stranded cDNA (ds-cDNA) by using the cDNA synthesis kit (Affymetrix). An oligo-dT primer containing a T7 RNA polymerase promoter was utilized. The ds-cDNA was then purified and recovered by using purification beads (Affymetrix). Next, in vitro transcription was performed to generate biotin-labeled cRNA using a RNA Transcript Labeling Kit (Affymetrix). Biotin-labeled cRNA was purified using an RNeasy affinity column (Qiagen).
To ensure optimal hybridization to the oligonucleotide array, the cRNA was fragmented. Fragmentation was performed such that the cRNA fragments are between 50-200 bases in length by incubating the cRNA at 94° C. for 35 min in a fragmentation buffer. The sample was then added to a hybridization solution containing 100 mM IVIES, 1 M Na+, and 20 mM EDTA in the presence of 0.01% Tween 20. The final concentration of the fragmented cRNA was […]. Hybridization was performed by incubating 200 uL of the sample to the Affymetrix GeneChip® PrimeView™ human gene expression array (Affymetrix Inc., Santa Clara, California, USA) at 45° C. for 16 hours using a GeneChip® Hybridization Oven 640 (Affymetrix).
After hybridization, the hybridization solutions were removed and the arrays were washed and stained with Streptavidin-phycoerythrin using a GeneChip® Fluidics Station 450 (Affymetrix). Arrays were read at a resolution of 2.5 to 3 microns using the GeneChip Scanner 3000 (Affymetrix). Each gene was represented by the use of −11 probes per transcript and many control probes. The Command Console GeneChip software program was used to determine the intensity of expression for all genes on the array. For this experiment, fold-induction of genes by PB201 treatment of HepG2 cells was calculated compared to the average intensity observed in control HepG2 cells in culture solution without any added stimulus such as PB201.

Q: For `O=C(CC(=O)c1ccccc1)c1ccccc1` [PB201, 1,3-diphenyl-1,3-propanedione], which IL-8 release [1] is on record?
A: The IL-8 release was “significantly decreased; also recorded: attenuated”.

Q: What about the “Induction of Nrf2-dependent luciferase gene expression” value ([2]; A172 human brain cell line, other experiments (FIG. 5)) of the same molecule?
A: Its value is “lower, but measurable, induction”.

Q: What about the “Nrf2 gene activation and luciferase expression” value ([2]; brain cells (A172), this experiment (FIGS. 2-4)) of the same molecule?
A: The value was “no activation”.

Q: And the “Nrf2 gene activation and luciferase expression” value ([2]; breast cells (AREc32, MCF7), 18 h incubation)?
A: Its value is “exhibited Nrf2 gene activation and luciferase expression”.

Q: And the “Nrf2 gene activation and luciferase expression” value ([2]; kidney cells (293T), 18 h incubation)?
A: Its value is “exhibited Nrf2 gene activation and luciferase expression”.

Q: What about the “Nrf2 gene activation and luciferase expression” value ([2]; liver cells (HepG2), 18 h incubation) of the same molecule?
A: The value was “exhibited Nrf2 gene activation and luciferase expression”.

Q: What about the “Nrf2 gene activation and luciferase expression” value ([2]; lung cells (A549; constitutive Nrf2 activation due to mutation)) of the same molecule?
A: Its value is “lesser activation; also recorded: low or negative response”.

Q: And the “Nrf2 response (luciferase chemiluminescence)” value [3]?
A: Its value is “strong Nrf2 response similar to 1 or 2 hours of exposure”.

Q: What about the fold induction at 1.5 µg/mL (HepG2 cells; vs control HepG2, read-out: Fold induction by PB201: AGPAT9) of the same molecule?
A: The fold induction at 1.5 µg/mL was 2.46.

Q: What about the fold induction at 1.5 µg/mL (HepG2 cells; vs control HepG2, read-out: Fold induction by PB201: AKR1B10///AKR1B15) of the same molecule?
A: The fold induction at 1.5 µg/mL was 5.85.

Q: And the fold induction at 1.5 µg/mL (HepG2 cells; vs control HepG2, read-out: Fold induction by PB201: AKR1B15)?
A: Its fold induction at 1.5 µg/mL is 4.1.

Q: What about the fold induction at 1.5 µg/mL (HepG2 cells; vs control HepG2, read-out: Fold induction by PB201: AKR1C1) of the same molecule?
A: The fold induction at 1.5 µg/mL was 4.97.

Q: And the fold induction at 1.5 µg/mL (HepG2 cells; vs control HepG2, read-out: Fold induction by PB201: AKR1C2///LOC100653286)?
A: The fold induction at 1.5 µg/mL was 6.56.

Q: And the fold induction at 1.5 µg/mL (HepG2 cells; vs control HepG2, read-out: Fold induction by PB201: AQP3)?
A: The fold induction at 1.5 µg/mL was 3.

Q: And the fold induction at 1.5 µg/mL (HepG2 cells; vs control HepG2, read-out: Fold induction by PB201: BHMT2)?
A: The fold induction at 1.5 µg/mL was 3.8.

Q: What about the fold induction at 1.5 µg/mL (HepG2 cells; vs control HepG2, read-out: Fold induction by PB201: CCPG1///DYX1C1-CCPG1) of the same molecule?
A: The fold induction at 1.5 µg/mL was 2.51.

Q: And the fold induction at 1.5 µg/mL (HepG2 cells; vs control HepG2, read-out: Fold induction by PB201: CYP4F3)?
A: The fold induction at 1.5 µg/mL was 2.46.

Q: And the fold induction at 1.5 µg/mL (HepG2 cells; vs control HepG2, read-out: Fold induction by PB201: CYP4F11)?
A: The fold induction at 1.5 µg/mL was 4.43.

Q: What about the fold induction at 1.5 µg/mL (HepG2 cells; vs control HepG2, read-out: Fold induction by PB201: EID3) of the same molecule?
A: The fold induction at 1.5 µg/mL was 4.18.

Q: What about the fold induction at 1.5 µg/mL (HepG2 cells; vs control HepG2, read-out: Fold induction by PB201: FOS) of the same molecule?
A: The fold induction at 1.5 µg/mL was 2.91.

Q: And the fold induction at 1.5 µg/mL (HepG2 cells; vs control HepG2, read-out: Fold induction by PB201: FTH1)?
A: The fold induction at 1.5 µg/mL was 2.62.

Q: And the fold induction at 1.5 µg/mL (HepG2 cells; vs control HepG2, read-out: Fold induction by PB201: GCLM)?
A: The fold induction at 1.5 µg/mL was 4.03.

Q: What about the fold induction at 1.5 µg/mL (HepG2 cells; vs control HepG2, read-out: Fold induction by PB201: GLA) of the same molecule?
A: The fold induction at 1.5 µg/mL was 2.59.

Q: What about the fold induction at 1.5 µg/mL (HepG2 cells; vs control HepG2, read-out: Fold induction by PB201: GSTA1///GSTA2) of the same molecule?
A: Its fold induction at 1.5 µg/mL is 6.99.

Q: And the fold induction at 1.5 µg/mL (HepG2 cells; vs control HepG2, read-out: Fold induction by PB201: HMOX1)?
A: Its fold induction at 1.5 µg/mL is 3.64.

Q: What about the fold induction at 1.5 µg/mL (HepG2 cells; vs control HepG2, read-out: Fold induction by PB201: KYNU) of the same molecule?
A: Its fold induction at 1.5 µg/mL is 3.9.

Q: What about the fold induction at 1.5 µg/mL (HepG2 cells; vs control HepG2, read-out: Fold induction by PB201: MLLT11) of the same molecule?
A: The fold induction at 1.5 µg/mL was 2.71.

Q: What about the fold induction at 1.5 µg/mL (HepG2 cells; vs control HepG2, read-out: Fold induction by PB201: OSGIN1) of the same molecule?
A: Its fold induction at 1.5 µg/mL is 3.18.

Q: And the fold induction at 1.5 µg/mL (HepG2 cells; vs control HepG2, read-out: Fold induction by PB201: PANX2)?
A: The fold induction at 1.5 µg/mL was 2.88.

Q: What about the fold induction at 1.5 µg/mL (HepG2 cells; vs control HepG2, read-out: Fold induction by PB201: PTGR1) of the same molecule?
A: Its fold induction at 1.5 µg/mL is 4.79.

Q: What about the fold induction at 1.5 µg/mL (HepG2 cells; vs control HepG2, read-out: Fold induction by PB201: SLC16A6) of the same molecule?
A: Its fold induction at 1.5 µg/mL is 3.8.

Q: And the fold induction at 1.5 µg/mL (HepG2 cells; vs control HepG2, read-out: Fold induction by PB201: SQSTM1)?
A: Its fold induction at 1.5 µg/mL is 2.84.

Q: What about the fold induction at 1.5 µg/mL (HepG2 cells; vs control HepG2, read-out: Fold induction by PB201: SRXN1) of the same molecule?
A: The fold induction at 1.5 µg/mL was 2.8.

Q: What about the fold induction at 1.5 µg/mL (HepG2 cells; vs control HepG2, read-out: Fold induction by PB201: TEX19) of the same molecule?
A: Its fold induction at 1.5 µg/mL is 3.

Q: And the fold induction at 1.5 µg/mL (HepG2 cells; vs control HepG2, read-out: Fold induction by PB201: TRPV3)?
A: Its fold induction at 1.5 µg/mL is 3.51.

Q: And the fold induction at 1.5 µg/mL (HepG2 cells; vs control HepG2, read-out: Fold induction by PB201: TUBA4A)?
A: The fold induction at 1.5 µg/mL was 2.55.
